# Marks after values point to notes of the source that are not given here.
# Assay: Growth performance of broilers given FeQ or FeTyr in water/feed, dirty litter Campylobacter challenge at day 20 (Example 1)
# Format: in vivo, Ross 308 male broilers
# Settings: for AWG (average weight gain) Day 0-20 / MFCR (mortality adjusted) Day 0-20 / AFD (average feed intake) Day 0-20: before challenge
# Description: A study was performed to evaluate growth promotion and reduction of Campylobacter carriage using FeQ and FeTyr in Ross 308 male broilers with 7 treatment groups. Each treatment group comprised four replicates of 10 birds per pen (40 birds/treatment group and 4 pens of 10 birds/treatment group), with 2 control groups and 5 test groups. All the test groups and one of the control groups were exposed at day 20 of the trial to dirty litter, which tested positive for Campylobacter. This method was used to provide a more natural method to Campylobacter challenge the birds. Thus there was a positive control where one treatment group was challenged with Campylobacter and one negative control group where the birds were not challenged, and five treatment groups that were all challenged with Campylobacter. The total number of birds used in the 7 treatment groups was 280. Treatment group 1 was a negative control where birds just received the commercial feed, and were not challenged with dirty litter containing Campylobacter. Treatment group 2 was the positive control where the birds received the commercial feed, and were challenged with dirty litter containing Campylobacter at day 20. Treatment group 3 received 0.22 g/L of FeQ in their drinking water and 0.22 g/Kg FeQ in their feed during the entire trial, and was challenged with dirty litter containing Campylobacter at day 20. Treatment group 5 received 0.22 g/L of FeQ in their drinking water during the entire trial, and was challenged with dirty litter containing Campylobacter at day 20. Treatment group 6 received 0.22 g/kg FeQ in their feed during the entire trial, and was challenged with dirty litter containing Campylobacter at day 20. Treatment group 7 received 0.022 g/L FeQ in their drinking water during the entire trial, and was challenged with dirty litter containing Campylobacter at day 20. Treatment group 8 received 0.02 g/L FeTyr in their drinking water during the entire trial, and was challenged with dirty litter containing Campylobacter at day 20. The FeTyr was pre-dissolved in DMSO, and diluted to provide a solution of 0.02 g/L of FeTyr in water. (An additional treatment group 4 was terminated due to solubility issues.)
# The birds were fed with a commercial three-phase feeding program using starter, grower and finisher feeds with formulations shown in Table 2. All diets had coccidiostat (MAXIBAN® at 0.0625% in starter and […] and MONTEBAN® at 0.06% in finisher phase). Xylanase (RONOZYME® WX at 200 g per ton) and phytase (RONOZYME® P at 150 grams per ton) were added to all diets.
# The feeding program is show in Table 3. The birds were reared in floor pens to day 42, and fed starter, grower and finisher feed at day 0 to 11, 11 to 24, and 24 to 42 days, respectively. All birds were weighed individually and feed weigh backs recorded per pen at day 0, 11, 21, 24 and 42 days.
# Prior to challenging the chickens with dirty litter containing Campylobacter at day 20, each pen was tested for Campylobacter using cloacal swabs. All pens tested negative for Campylobacter prior to the challenge. At day 20, litter, which was naturally Campylobacter-contaminated, was tested to confirm the presence of Campylobacter, and then added (approximately 2 kg/pen) to the litter in all pens except in pens for treatment group 1 (the negative control). At day 28, the pen litter was sampled to confirm the presence or absence of Campylobacter. At day 41 and 42, caecal samples were taken from 3 birds per pen (12 birds per treatment group) and tested for Campylobacter enumeration. At day 42, digesta, fecal samples, and caecal content was taken from all birds, and pooled per pen. Two birds per pen were also taken from treatment groups 1-3, euthanized, and blood samples taken. […]
# [1] = treatment 5: 0.22 g/L FeQ in water
# [2] = treatment 6: 0.22 g/kg FeQ in feed
# [3] = treatment 7: 0.022 g/L FeQ in water
smiles,measurement,setting,value
"O=C([O-])C1(O)CC(O)C(O)C(O)C1.O=C([O-])C1(O)CC(O)C(O)C(O)C1.O=C([O-])C1(O)CC(O)C(O)C(O)C1.[Fe+3] (stereo not drawn) [FeQ, Ferric Quinate]",AWG (average weight gain) Day 0-20,[1],0.903 kg
same,MFCR (mortality adjusted) Day 0-20,[1],1.303
same,ABW (average body weight) Day 0,[2],0.041 kg
same,ABW (average body weight) Day 11,[2],0.351 kg
same,ABW (average body weight) Day 20,[2],0.991 kg
same,ABW (average body weight) Day 25,[2],1.426 kg
same,ABW (average body weight) Day 42,[2],3.464 kg
same,AFD (average feed intake) Day 0-11,[2],0.360 kg
same,AFD (average feed intake) Day 0-42,[2],5.201 kg
same,AFD (average feed intake) Day 11-20,[2],0.841 kg
same,AFD (average feed intake) Day 11-25,[2],1.526 kg
same,AFD (average feed intake) Day 20-25,[2],0.685 kg
same,AFD (average feed intake) Day 20-42,[2],4.001 kg
same,AFD (average feed intake) Day 25-42,[2],3.315 kg
same,AWG (average weight gain) Day 0-11,[2],0.310 kg
same,AWG (average weight gain) Day 0-42,[2],3.423^b kg
same,AWG (average weight gain) Day 11-20,[2],0.640 kg
same,AWG (average weight gain) Day 11-25,[2],1.075 kg
same,AWG (average weight gain) Day 20-25,[2],0.434 kg
same,AWG (average weight gain) Day 20-42,[2],2.473^ab kg
same,AWG (average weight gain) Day 25-42,[2],2.039^b kg
same,EPEF (European production and efficiency factor) Day 20,[2],364.8
same,EPEF (European production and efficiency factor) Day 42,[2],265.0
same,MFCR (mortality adjusted FCR) Day 11-20,[2],1.343
same,MFCR (mortality adjusted FCR) Day 11-25,[2],1.440
same,MFCR (mortality adjusted FCR) Day 20-25,[2],1.599
same,MFCR (mortality adjusted FCR) Day 25-42,[2],1.704
same,MFCR (mortality adjusted feed conversion ratio) Day 0-11,[2],1.168^a
same,MFCR (mortality adjusted) Day 0-42,[2],1.563
same,MFCR (mortality adjusted) Day 20-42,[2],1.678
same,AFD (average feed intake) Day 0-20,[2],1.201 kg
same,AWG (average weight gain) Day 0-20,[2],0.951 kg
same,MFCR (mortality adjusted) Day 0-20,[2],1.284
same,ABW (average body weight) Day 0,[3],0.040 kg
same,ABW (average body weight) Day 11,[3],0.325 kg
same,ABW (average body weight) Day 20,[3],0.947 kg
same,ABW (average body weight) Day 25,[3],1.388 kg
same,ABW (average body weight) Day 42,[3],3.304 kg
same,AFD (average feed intake) Day 0-11,[3],0.348 kg
same,AFD (average feed intake) Day 0-42,[3],5.201 kg
same,AFD (average feed intake) Day 11-20,[3],0.829 kg
same,AFD (average feed intake) Day 11-25,[3],1.490 kg
same,AFD (average feed intake) Day 20-25,[3],0.661 kg
same,AFD (average feed intake) Day 20-42,[3],4.023 kg
same,AFD (average feed intake) Day 25-42,[3],3.362 kg
same,AWG (average weight gain) Day 0-11,[3],0.285 kg
same,AWG (average weight gain) Day 0-42,[3],3.265^ab kg
same,AWG (average weight gain) Day 11-20,[3],0.622 kg
same,AWG (average weight gain) Day 11-25,[3],1.064 kg
same,AWG (average weight gain) Day 20-25,[3],0.441 kg
same,AWG (average weight gain) Day 20-42,[3],2.357^ab kg
same,AWG (average weight gain) Day 25-42,[3],1.916^ab kg
same,EPEF (European production and efficiency factor) Day 20,[3],354.5
same,EPEF (European production and efficiency factor) Day 42,[3],276.2
same,MFCR (mortality adjusted FCR) Day 11-20,[3],1.333
same,MFCR (mortality adjusted FCR) Day 11-25,[3],1.406
same,MFCR (mortality adjusted FCR) Day 20-25,[3],1.513
same,MFCR (mortality adjusted FCR) Day 25-42,[3],1.793
same,MFCR (mortality adjusted feed conversion ratio) Day 0-11,[3],1.236^b
same,MFCR (mortality adjusted) Day 0-42,[3],1.612
same,MFCR (mortality adjusted) Day 20-42,[3],1.739
same,AFD (average feed intake) Day 0-20,[3],1.178 kg
same,AWG (average weight gain) Day 0-20,[3],0.907 kg
same,MFCR (mortality adjusted) Day 0-20,[3],1.302
same,effect on MFCR at day 42 compared with positive control (FIG. 2),"treatment groups 3, 5, 6, 7 and 8, challenged with dirty litter",positive effect on MFCR
same,effect on growth: average body weight at day 42 compared with positive control (FIG. 1),"treatment groups 3, 5, 6, 7 and 8, challenged with dirty litter containing Campylobacter",positive effect on growth
